Reference: DBAASP
Values after ≈ are worked out from the molar mass of the structure shown. One block for each compound: values may come before it.

Assays:
Test in all cases: ≥ marks a high value that may be exact or a test limit, other limits are often not marked, values filed in µg/mL are converted to µM
Klebsiella pneumoniae = system: Klebsiella pneumoniae
Streptococcus iniae = system: Streptococcus iniae
Shigella flexneri = system: Shigella flexneri
Escherichia coli = system: Escherichia coli
[1] = system: Shigella flexneri ATCC 12022
Pseudomonas aeruginosa = system: Pseudomonas aeruginosa
[2] = system: Streptococcus iniae 00-1425
Lactococcus garvieae = system: Lactococcus garvieae
Enterococcus faecalis = system: Enterococcus faecalis
[3] = system: Aeromonas salmonicida NCTC 7812
[4] = system: Lactococcus garvieae 00-1422
Staphylococcus aureus = system: Staphylococcus aureus
Vibrio alginolyticus = system: Vibrio alginolyticus
[5] = system: Escherichia coli ATCC 25922
Aeromonas salmonicida = system: Aeromonas salmonicida
Aeromonas hydrophila = system: Aeromonas hydrophila
[6] = system: Vibrio anguillarum ATCC 19264
[7] = system: Enterococcus faecalis ATCC 29212
[8] = system: Klebsiella aerogenes BCRC 10370
[9] = system: Escherichia coli BCRC 10675
[10] = system: Yersinia enterocolitica BCRC 13999
[11] = system: Listeria monocytogenes BCRC 14845
[12] = system: Staphylococcus aureus BCRC 10781
[13] = system: Staphylococcus aureus BCRC 10780
[14] = system: Vibrio parahaemolyticus BCRC 10806
[15] = system: Vibrio alginolyticus BCRC 12829
[16] = system: Streptococcus equinus BCRC 14729
[17] = system: Staphylococcus xylosus BCRC 12930
Vibrio parahaemolyticus = system: Vibrio parahaemolyticus
[18] = system: Enterobacter cloacae BCRC 10401
[19] = system: Klebsiella oxytoca BCRC 13985
Vibrio harveyi = system: Vibrio harveyi
[20] = system: Vibrio anguillarum serotype O1
[21] = system: Pseudomonas aeruginosa BCRC 10944
Escherichia coli W3110 = system: Escherichia coli W3110
[22] = system: Staphylococcus aureus ATCC 6538P
Escherichia coli SPE 001 = system: Escherichia coli SPE 001
[23] = system: Staphylococcus aureus SPM 101
[24] = system: Candida albicans NBRC 1385
[25] = system: Escherichia coli K-12 594
[26] = system: Staphylococcus aureus SR1550
[27] = system: Staphylococcus aureus NBRC 100910
[28] = system: Streptococcus mutans UA159
[29] = system: Streptococcus sanguinis NY101
[30] = system: Pseudomonas aeruginosa PAK
[31] = system: Streptococcus mitis ATCC 903
[32] = system: Streptococcus gordonii Challis DL1

MIC (Klebsiella pneumoniae): 2.53 µM (≈ 6.3 µg/mL)
MIC (Streptococcus iniae): 1.24 µM (≈ 3.1 µg/mL)
MIC (Shigella flexneri): 2.53 µM (≈ 6.3 µg/mL)
MIC (Escherichia coli): 1.24 µM (≈ 3.1 µg/mL)
MIC [1]: 20.1 µM (≈ 50 µg/mL)
MIC (Pseudomonas aeruginosa): 10 µM (≈ 25 µg/mL)
MIC [2]: 2.51 µM (≈ 6.25 µg/mL)
MIC (Lactococcus garvieae): 1.77 µM (≈ 4.42 µg/mL)
MIC (Enterococcus faecalis): 5.02 µM (≈ 12.5 µg/mL)
MIC [3]: ≥ 80.3 µM
MIC [4]: 20.1 µM (≈ 50 µg/mL)
MIC (Staphylococcus aureus): 1.24 µM (≈ 3.1 µg/mL)
MIC (Vibrio alginolyticus): 2.53 µM (≈ 6.3 µg/mL)
MIC [5]: 80.3 µM (≈ 200 µg/mL)
MIC (Aeromonas salmonicida): 5.02 µM (≈ 12.5 µg/mL)
MIC (Aeromonas hydrophila): 0.642 µM (≈ 1.6 µg/mL)
MIC [6]: 3.55 µM (≈ 8.85 µg/mL)
MIC [7]: 1.26 µM (≈ 3.14 µg/mL)
SMILES: CC[C@H](C)[C@H](NC(=O)CNC(=O)[C@H](CCCN=C(N)N)NC(=O)[C@H](Cc1ccccc1)NC(=O)[C@@H](NC(=O)[C@H](Cc1cnc[nH]1)NC(=O)[C@H](Cc1cnc[nH]1)NC(=O)[C@@H](NC(=O)[C@@H](N)Cc1ccccc1)[C@@H](C)CC)[C@@H](C)CC)C(=O)N[C@H](C(=O)N[C@@H](Cc1cnc[nH]1)C(=O)N[C@@H](C)C(=O)NCC(=O)N[C@@H](CCCN=C(N)N)C(=O)N[C@@H](CO)C(=O)N[C@H](C(=O)NCC(=O)N[C@@H](CCCN=C(N)N)C(=O)N[C@@H](Cc1ccccc1)C(=O)N[C@@H](CC(C)C)C(=O)N[C@H](C(=O)NCC(=O)O)[C@@H](C)O)[C@@H](C)CC)C(C)C [FIHHIFRGIVHAGRSIGRFLTG]

MIC [8]: 7.21 µM (≈ 16 µg/mL)
MIC (Streptococcus iniae): ≥ 57.7 µM
MIC [9]: 7.21 µM (≈ 16 µg/mL)
MIC [10]: ≥ 57.7 µM
MIC [11]: 28.9 µM (≈ 64 µg/mL)
MIC [12]: ≥ 57.7 µM
MIC [13]: ≥ 57.7 µM
MIC (Lactococcus garvieae): ≥ 57.7 µM
MIC [15]: ≥ 57.7 µM
MIC [16]: ≥ 57.7 µM
MIC (Vibrio alginolyticus): 14.4 µM (≈ 32 µg/mL)
MIC [17]: 28.9 µM (≈ 64 µg/mL)
MIC [18]: 7.21 µM (≈ 16 µg/mL)
MIC [19]: 7.21 µM (≈ 16 µg/mL)
MIC (Vibrio harveyi): 28.9 µM (≈ 64 µg/mL)
MIC [20]: 28.9 µM (≈ 64 µg/mL)
MIC [21]: 28.9 µM (≈ 64 µg/mL)
SMILES: CC[C@H](C)[C@H](NC(=O)[C@@H](NC(=O)[C@H](CCCCN)NC(=O)[C@H](Cc1ccc(O)cc1)NC(=O)[C@H](Cc1ccccc1)NC(=O)[C@H](CCCCN)NC(=O)[C@@H](NC(=O)[C@H](Cc1ccccc1)NC(=O)[C@H](C)NC(=O)[C@@H](NC(=O)[C@H](C)NC(=O)[C@H](C)NC(=O)[C@H](CCCCN)NC(=O)[C@@H](NC(=O)[C@H](CC(C)C)NC(=O)[C@H](C)NC(=O)[C@H](CCCCN)NC(=O)[C@H](C)NC(=O)CN)[C@@H](C)O)[C@@H](C)O)[C@@H](C)O)[C@@H](C)O)C(=O)N[C@@H](Cc1c[nH]c2ccccc12)C(=O)O [GAKALTKAATAFTKFYKTIW]
MIC [14]: ≥ 57.7 µM
MIC (Vibrio parahaemolyticus): 14.4 µM (≈ 32 µg/mL)

MIC (Escherichia coli W3110): 12.1 µM (≈ 16 µg/mL)
MIC [22]: 1.51 µM (≈ 2 µg/mL)
MIC (Escherichia coli SPE 001): 12.1 µM (≈ 16 µg/mL)
MIC [23]: 0.378 µM (≈ 0.5 µg/mL)
MIC [24]: ≥ 48.4 µM
MIC [25]: 15.1 µM (≈ 20 µg/mL)
MIC [26]: 22.7 µM (≈ 30 µg/mL)
MIC [27]: 12.1 µM (≈ 16 µg/mL)
SMILES: CC(C)C[C@H](NC(=O)[C@H](CCCCN)NC(=O)[C@H](CC(C)C)NC(=O)[C@H](CC(C)C)NC(=O)[C@H](CC(C)C)NC(=O)[C@H](CC(C)C)NC(=O)[C@H](CC(C)C)NC(=O)[C@H](CCCCN)NC(=O)[C@H](CC(C)C)NC(=O)[C@@H](N)CCCCN)C(=O)N[C@@H](CCCCN)C(N)=O [KLKLLLLLKLK]

MIC [28]: 3.05 µM (≈ 8 µg/mL)
MIC (Staphylococcus aureus): 12.2 µM (≈ 32 µg/mL)
MIC [29]: 12.2 µM (≈ 32 µg/mL)
MIC [30]: 23.9 µM (≈ 62.5 µg/mL)
MIC [31]: 12.2 µM (≈ 32 µg/mL)
MIC [32]: 12.2 µM (≈ 32 µg/mL)
SMILES: CC[C@H](C)[C@H](NC(=O)[C@H](Cc1ccccc1)NC(=O)CNC(=O)CNC(=O)[C@H](CO)NC(=O)[C@H](Cc1ccccc1)NC(=O)[C@H](Cc1c[nH]c2ccccc12)NC(=O)[C@H](CCCN=C(N)N)NC(=O)[C@H](Cc1c[nH]c2ccccc12)NC(=O)[C@H](CCCN=C(N)N)NC(=O)[C@H](Cc1c[nH]c2ccccc12)NC(=O)[C@@H](N)CCCN=C(N)N)C(=O)N[C@@H](CCCCN)C(=O)N[C@@H](Cc1cnc[nH]1)C(=O)N[C@@H](Cc1ccccc1)C(=O)N[C@H](C(=O)N[C@@H](Cc1cnc[nH]1)C(=O)N[C@@H](CCCN=C(N)N)C(=O)N[C@@H](Cc1ccccc1)C(N)=O)[C@@H](C)CC [RWRWRWFSGGFIKHFIHRF]
